This passage reports IC50 and EC50 results from PMC12074795, “Synthesis and biological evaluation of esterified anti-inflammatory drugs with ethylene glycol linkers: cytotoxicity, anti-inflammatory and antioxidant properties” (Royal Society Open Science, 2025).

Read-outs that look alike come from different tables or passages of the source. Bounds are passed on as bounds.

Data set [1] deals with nitric oxide production by macrophages activated with Saccharomyces cerevisiae. Put plainly: Inhibition of nitric oxide production by stimulated macrophages (Griess). Format: cell-based, mouse. As for the experimental part:
Second, the anti-inflammatory activity of these compounds at a maximum concentration of 0.22 mM was evaluated by assessing their ability to inhibit the synthesis of NO (figure 2).
Peritoneal macrophages were isolated from four eight-week-old, 25 g Wistar mice by intraperitoneal injection of 0.5 ml of 2% starch solution (inflammatory agent) to stimulate their production. Four days later, the animals were sacrificed, and 5 ml of phosphate buffered saline (PBS) buffer (0.1 M, pH 7.4) was injected into their peritoneal cavity with a syringe. After massage of the peritoneal cavity, the injected buffer was slowly aspirated through a small abdominal incision. The resulting solution containing macrophages was transferred to 15 ml Falcon tubes and kept in ice. The fluid obtained was then centrifuged (1620 g, 4°C and 10 min), and the supernatant was removed. The erythrocytes were removed by osmotic shock. The cells were suspended in 1 ml hypotonic 0.05 M NaCl solution for 1 min. Isotonicity was then restored by adding 1 ml of 0.25 M NaCl. The mixture was centrifuged (1620 g, 4°C and 10 min) and the resulting pellet was suspended in 2 ml of Dulbecco's modified eagle medium (DMEM) (containing 0.2% streptomycin and penicillin, 0.4 g l^−1 bovine serum albumin and 3.7 g l^−1 NaHCO3 in PBS and filtered with 0.22 µm Millipore filters).
In the 96-well plate, 150 µl of a cell suspension (10^4 cells per well) were distributed in different wells. In the test and positive control wells, 50 µl of Saccharomycces cerevisiae (250 µg ml^–1) was added to stimulate the production of pro-inflammatory cytokines. Meanwhile 50 µl of DMEM was added in the negative control wells. The microplate was incubated at 37°C (5% CO2) for 1 h, then 50 µl of solution of compounds or baicalin at different concentrations (0.241 × 10^–3, 2.23 × 10^–3, 22.4 × 10^–3, 220 × 10^–3 and 2410 × 10^–3 mM) were added to the test wells and 50 µl DMEM to the positive (cells activated with Saccharomyces cerevisiae) and negative (inactivated cells) control wells. After 3 h of incubation at 37°C (5% CO2), the cell supernatants were used for NO [41].
A total of 100 µl of the previously obtained cell supernatants were mixed with 100 µl of Griess reagent (1% sulphanylamide, 0.1% naphthyl ethylenediamine dihydrochloride in 2.5% v/v phosphoric acid). The mixture was incubated for 10 min at room temperature and the absorbance is read at 550 nm. The amount of nitrite was measured using the standard sodium […] curve. The percentage inhibition of nitric oxide synthesis was calculated using the following formula:
%inhibition=[(ODcontrol−ODassay/ODcontrol]×100).

A short description of data set [2]: Ferric reducing antioxidant power (FRAP) test. Format: biochemical. Particulars: 505 nm. As for the experimental part:
The in vitro antioxidant ability of the compounds synthesized in this work was evaluated using three different assays, including (i) the ABTS radical cation reduction-decolorization test, which uses the technique of Khan et al. consisting of the reduction of the cation radical by an antioxidant through the discoloration measured by absorption at the wavelength of 734 nm; (ii) interaction with the stable free radical DPPH, based on Bassene’s method, in which the scavenging of DPPH radicals is carried out by a colorimetric method consisting of the reduction of the DPPH radical, determined by its absorption at a wavelength of 517 nm; and (iii) the FRAP test according to the protocol of Path Canada, based on the ability of a substance to reduce Fe^3+ ions to Fe^2+ ions, which, in the presence of 1,10-phenanthroline, form a red-orange complex whose optical density can be measured at 505 nm.
The Fe^3+ reduction test followed Path Canada’s protocol with some modifications, assessing the reduction of Fe^3+ ions to Fe^2+ ions, which form a red-orange complex with 1,10-phenanthroline, measurable at 505 nm. The colour intensity correlates with the amount of Fe^3+ reduced. Four solutions were prepared: 1.2 mg ml^−1 of Fe^3+ solution (1.2 mg FeCl3 in 1 ml distilled H2O), 0.2% ortho-phenanthroline solution (200 mg powder in 100 ml ethanol), 2 mg ml^−1 of gallic acid solution (2 mg gallic acid in 1 ml distilled H2O) as a positive control, stock and dilute solutions of the synthesized compounds (see §3.2.5.1). In a 96-well microplate, 180 µl distilled H2O was added to the first column and 100 µl to others for dilution. Each compound solution (20 µl at 10 mg ml^−1) was mixed with 25 µl Fe^3+ solution and incubated for 15 min in the dark at room temperature. Afterwards, 50 µl ortho-phenanthroline solution was added, followed by another 15 min incubation. Optical density was measured at 505 nm using a TECAN M200 plate reader. The positive control was treated similarly to the DPPH and ABTS assays.
The percentages of scavenging or 50% reduction were calculated using gallic acid as a standard for 100% reduction. The concentration of radical scavengers needed to neutralize 50% of free radicals, referred to as SC50, was determined using GraphPad Prism 8.0.1 software (244).

A short description of data set [3]: Cell viability (MTT) assay on macrophages in primary culture. Format: cell-based. Particulars: Wistar, mouse, peritoneal macrophages in primary culture, concentrations 2.41 × 10^–4 to 2.41 mM, read-out: half cytotoxic concentration (IC50). The procedure: The inflammatory response is part of the body’s first line of defence against a pathogen. Macrophages are one of the most studied inflammatory cells due to their high involvement in this inflammatory process. The recognition of an antigenic motif by a toll-like receptor on macrophages leads to a cascade of molecular signalling to the synthesis of pro-inflammatory mediators such as NO to eliminate the pathogen. First, the effect of the compounds on cell viability was assessed by measuring the cytotoxicity of the compounds in cell culture using the MTT assay at concentrations ranging from 2.41 × 10^–4 to 2.41 mM (figure 1).
Peritoneal macrophages were isolated from four eight-week-old, 25 g Wistar mice by intraperitoneal injection of 0.5 ml of 2% starch solution (inflammatory agent) to stimulate their production. Four days later, the animals were sacrificed, and 5 ml of phosphate buffered saline (PBS) buffer (0.1 M, pH 7.4) was injected into their peritoneal cavity with a syringe. […]
The effect of the solutions of synthetic compounds on the viability of macrophages in primary culture was determined by using the MTT as previously described in the literature. […] Finally, the absorbance of the purple solution was read at 630 nm against the acidified isopropanol solution. The percentage of cell viability was calculated using the following formula: […]

The mark [4] stands for this setting: Mus musculus, Macrophage, 3 h, peritoneal macrophages activated with Saccharomyces cerevisiae, 3 h incubation, Griess reagent, read-out: IC50 of NO inhibition assay.
[5] abbreviates: first replicate, read-out: FRAP SC50(1).
Where [6] appears, read: mean of duplicate, read-out: FRAP mean SC50.
The mark [7] stands for this setting: second replicate, read-out: FRAP SC50(2).
The mark [8] stands for this setting: Mus musculus, Macrophage, classified according to the IC50 values of table 1, read-out: anti-inflammatory activity (class by IC50 of NO inhibition).
[9] abbreviates: peritoneal macrophages activated with Saccharomyces cerevisiae, 3 h incubation, Griess reagent, read-out: IC50 of NO inhibition assay.

For `CC(C)Cc1ccc(C(C)C(=O)O)cc1` (stereo not shown) [Compound 1, ibuprofen, reference compound], the IC50 in data set [1] (setting [4]) was 330 µM. Moreover, the EC50 was 12.9 mM in data set [2] (setting [5]), 13 mM in data set [2] (setting [6]) and 13.2 mM in data set [2] (setting [7]).
Take `CC(C)Cc1ccc(C(=O)OCCOC(=O)C(C)c2ccc(CC(C)C)cc2)cc1` (stereo not shown) [Compound 2, 2-((2-(4-isobutylphenyl)propanoyl)oxy)ethyl 4-isobutylbenzoate]: the IC50 at 3 h in data set [3] came to 4.9 mM. Further, the IC50 in data set [1] (setting [4]) is 570 µM; in data set [1] (setting [8]) it was under 1000 µM. Besides, the EC50 in data set [2] (setting [5]), in data set [2] (setting [6]) and in data set [2] (setting [7]) was 6.79 mM throughout.
On to `CC(C)Cc1ccc(C(C)C(=O)OCCO)cc1` (stereo not shown) [Compound 3, 2-hydroxyethyl 2-(4-isobutylphenyl)propanoate], for which the IC50 in data set [1] (setting [8]) is under 1000 µM. The EC50 in data set [2] (setting [5]) was found to be 7.58 mM; in data set [2] (setting [6]), 7.48 mM; in data set [2] (setting [7]), 7.39 mM.
Regarding `CCCCCCCCCCCC(=O)OCCOC(=O)C(C)c1ccc(CC(C)C)cc1` (stereo not shown) [Compound 5a, 2-((2-(4-isobutylphenyl)propanoyl)oxy)ethyl dodecanoate], the IC50 in data set [1] (setting [4]) was at most 50 µM; in data set [1] (setting [8]) it was under 1000 µM; in data set [1] (setting [9]), 50 µM. In addition, the EC50 in data set [2] (setting [5]) stood at 4.66 mM; in data set [2] (setting [6]), 4.67 mM; in data set [2] (setting [7]), 4.67 mM.
For `O=C(OCCO)c1ccccc1O` [Compound 7, 2-hydroxyethyl 2-hydroxybenzoate], the IC50 in data set [1] (setting [4]) amounted to 50 µM. Also, the EC50 in data set [2] (setting [5]) is 11 mM; in data set [2] (setting [6]), 10.9 mM; in data set [2] (setting [7]) it was 10.9 mM.
For the compound `O=C(O)/C=C/c1ccccc1` [Compound 11, cinnamic acid, reference compound], the IC50 in data set [1] (setting [4]) was 340 µM. The figures for the EC50 in data set [2] (setting [5]), in data set [2] (setting [6]) and in data set [2] (setting [7]) were 13.8 mM, 13.7 mM and 13.6 mM, respectively.
For `O=C(/C=C/c1ccccc1)OCCOC(=O)c1ccccc1O` [Compound 12, (E)-2-(cinnamoyloxy)ethyl 2-hydroxybenzoate], in that order: 170 µM, 6.21 mM, 6.21 mM and 6.22 mM.
Regarding `O=C(OCCOC(=O)c1ccccc1O)c1ccccc1O` [Compound 13, Ethane-1,2-diyl bis(2-hydroxybenzoate)], the IC50 in data set [1] (setting [4]) was 900 µM. The EC50 in data set [2] (setting [5]) was 6.73 mM; in data set [2] (setting [6]), 6.69 mM; in data set [2] (setting [7]) it was 6.66 mM.
Consider `CC(C)Cc1ccc(C(C)C(=O)OCCOC(=O)C=Cc2ccccc2)cc1` (stereo not shown) [Compound 14, 2-((2-(4-isobutylphenyl)propanoyl)oxy)ethyl cinnamate], for which the IC50 in data set [1] (setting [4]) was at most 50 µM; in data set [1] (setting [8]) it was under 1000 µM; in data set [1] (setting [9]), 50 µM. Also, the results for the EC50 in data set [2] (setting [5]) and in data set [2] (setting [7]) were 7.68 mM and 7.27 mM, respectively.
As to `CCCCCCCCCCCC(=O)OCCOC(=O)c1ccccc1O` [DEW4a], the IC50 in data set [1] (setting [4]) was over 1000 µM; in data set [1] (setting [9]) it was 1360 µM. Further, the EC50 came out at 8.06 mM in data set [2] (setting [5]), 8.03 mM in data set [2] (setting [6]) and 8 mM in data set [2] (setting [7]).
